Target: T1, human red cone opsin (Homo sapiens, UniProt P04000)
T1 sequence (P04000 1-364): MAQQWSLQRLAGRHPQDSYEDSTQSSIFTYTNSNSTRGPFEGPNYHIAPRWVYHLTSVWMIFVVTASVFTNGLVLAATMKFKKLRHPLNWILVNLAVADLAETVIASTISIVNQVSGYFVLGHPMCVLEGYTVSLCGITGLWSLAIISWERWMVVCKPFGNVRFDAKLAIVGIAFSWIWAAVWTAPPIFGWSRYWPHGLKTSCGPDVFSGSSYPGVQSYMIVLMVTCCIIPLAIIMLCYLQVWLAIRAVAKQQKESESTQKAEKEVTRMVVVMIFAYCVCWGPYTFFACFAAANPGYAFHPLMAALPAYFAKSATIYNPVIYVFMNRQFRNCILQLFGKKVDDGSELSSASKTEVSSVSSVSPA
Assay: radioactive GTPγS filter binding, transducin activation
Format: biochemical
Settings: COS-1 membranes, bovine rod transducin, pH 6.4

Compound: CC(=O)/C=C/C1=C(C)CCCC1(C)C [β-ionone]
- inverse agonist: these compounds were found to be inverse agonists to the red cone opsin

Reference: article PMC3697084 (Methods in enzymology, 2010)
